The results in this text go back to patent EP2949653A1, “ISOXAZOLE DERIVATIVES AS LEUKOTRIENE BIOSYNTHESIS INHIBITORS” (Banoglu, Erden, priority 2014, dated 2015).

Structures are written as SMILES.

Usually IC50 stands for the concentration that gives 50% inhibition.

Assay [1] has as its system 5-LO mediated product synthesis. The assay can be described thus: 5-LO mediated product synthesis in neutrophils stimulated with LPS plus fMLP. It is filed as cell-based. Particulars: Homo sapiens, Neutrophil.
For assay [2], the system named is 5-LO mediated product formation. The assay can be described thus: 5-LO mediated product formation in intact neutrophils stimulated with A23187 (cell-based). Particulars: Homo sapiens, Neutrophil; A23187, in the presence of 20 µM to 80 µM exogenous arachidonic acid (Figure 2); read-out: IC50 5-LO mediated product formation in human neutrophils with exogenous AA.
The target of the next assay is T1, 5-LO plus FLAP (Homo sapiens, UniProt P20292).
T1 construct: expressed in transfected cells; host or cells: HEK293 (stably transfected)
T1 sequence (P20292 1-161): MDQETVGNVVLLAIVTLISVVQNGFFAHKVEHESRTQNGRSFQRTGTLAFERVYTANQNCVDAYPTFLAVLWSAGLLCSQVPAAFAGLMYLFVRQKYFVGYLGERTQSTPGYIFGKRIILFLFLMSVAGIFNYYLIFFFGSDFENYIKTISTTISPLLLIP
The assay can be described thus: 5-LO mediated product synthesis in HEK293 cells transfected with 5-LO plus FLAP. It is filed as cell-based. The following applies: 2.5 µM A23187 plus 3 µM AA (Figure 7). How it is done:
Compound 9hj inhibited 5-LO mediated product synthesis in HEK293 cells transfected with only 5-LO, with IC50 of 900 nM. […] After preincubation of cells with 9hj for 15 min at 37°C, cells were stimulated with 2.5 µM A23187 plus 3 µM AA for 10 min at 37°C. Data are expressed as percentage of vehicle control (0.1% DMSO). 100% controls correspond to 157.48 ng mL^-1 for 5-LO transfected cells and 155.15 ng mL^-1 for 5-LO plus FLAP transfected cells.

In assay [3] the test system is 5-LO mediated product synthesis. Put plainly: 5-LO mediated product synthesis in monocytes stimulated with LPS plus fMLP. The class given is cell-based. Particulars: Homo sapiens, Monocyte.
For assay [4], the system named is zymosan-induced peritonitis. The assay can be described thus: Zymosan-induced peritonitis in mice. The class given is in vivo. Particulars: i.p., male mice, 30 min before zymosan; LTC4 levels in peritoneal exudate (Figure 9). How it is done: Cell based and cell-free assays carried out in biological studies, immunofluorescence microscopy analysis and zymosan-induced peritonitis in mice are performed as described hereinabove (Pegola, C. and et al., British J. Pharmacology, 2014, D01:10.1111/bph.12625). In the cell based assays (intact neutrophils or monocytes), 5-LO mediated product formation is started, after pre-incubation with test compounds (or control DMSO) for 15 min. at 37 °C, with addition of Ca-ionophore A23187 (2.5 µM) to the fresh 5 x 10^6 neutrophils or monocytes suspended in 1 ml of PGC buffer (phosphate buffered saline (PBS) solution containing 1 mg ml^-1 glucose and 1mM CaCl2, pH 7.4). After the incubation for 10 min. at 37 °C, the reaction is ended with addition of 1 ml of methanol, and 30 µL 1 N HCl, 200 ng prostaglandin B1 and 500 µL PBS are added to the mixture. […] Resulting 5-LO mediated products are extracted and analysed by the known method of high pressure liquid chromatography (HPLC) (Pergola, C. Proc Natl. Acad. Sci. U.S.A. 2008, 105, 19881). 5-LO mediated product formation (LTB4 and all trans isomers, and 5 (S)-hydro(pero)xy-6-trans-8, 11, 14-cis-eicosatetraenoic acid, 5-H(p)ETE) is expressed as ng per 10^6 cell. Cysteinyl-LTs have not been analyzed because that the amount of C4, D4 and E4 and LTB4 oxidation products are below the detection limit. […]

In the next assay the target is T2, 15-LO (Homo sapiens, UniProt P16050).
T2 construct: 12-LO or 15-LO, up to 10 µM in A23187-stimulated neutrophils; endogenous in cells; host or cells: A23187-stimulated neutrophils
T2 sequence (P16050 1-662): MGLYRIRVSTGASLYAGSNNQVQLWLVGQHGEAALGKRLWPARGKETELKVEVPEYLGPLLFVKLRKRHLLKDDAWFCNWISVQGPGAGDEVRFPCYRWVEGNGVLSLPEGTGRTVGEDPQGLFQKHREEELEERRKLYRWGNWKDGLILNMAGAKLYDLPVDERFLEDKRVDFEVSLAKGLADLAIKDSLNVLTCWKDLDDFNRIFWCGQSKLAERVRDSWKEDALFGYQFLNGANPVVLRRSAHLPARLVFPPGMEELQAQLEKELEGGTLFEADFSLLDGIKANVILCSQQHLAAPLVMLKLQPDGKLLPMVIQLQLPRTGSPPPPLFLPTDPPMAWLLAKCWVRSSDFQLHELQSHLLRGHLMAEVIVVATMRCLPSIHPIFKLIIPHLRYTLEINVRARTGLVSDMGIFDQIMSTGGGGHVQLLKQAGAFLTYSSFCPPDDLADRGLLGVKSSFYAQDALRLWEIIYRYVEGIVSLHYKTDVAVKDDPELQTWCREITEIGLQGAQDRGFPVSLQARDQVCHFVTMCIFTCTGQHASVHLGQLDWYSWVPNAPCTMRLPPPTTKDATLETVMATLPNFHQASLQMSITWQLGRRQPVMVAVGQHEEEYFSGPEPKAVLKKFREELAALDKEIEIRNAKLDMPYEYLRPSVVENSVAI
The assay can be described thus: 15-LO inhibition in A23187-stimulated neutrophils. The class given is cell-based. The following applies: up to 10 µM in A23187-stimulated neutrophils.

Turning to `O=C(O)c1noc(-c2ccc(OCc3ccc4ccccc4n3)cc2)c1-c1ccc(Cl)cc1` [Compound 9hj, 4-(4-Chlorophenyl)-5-(4-(quinolin-2-ylmethoxy)phenyl)isoxazole-3-carboxylic acid], the half-inhibitory concentration (IC50) in assay [1] is 0.01 µM; in assay [2] it was 0.17 to 0.35 µM; at 5-LO plus FLAP, 0.31 µM; in assay [3], 0.008 µM. The ID50 zymosan-induced peritonitis in assay [4] is listed as 7 mg/kg. The “inhibition of 15-LO” value at 15-LO is listed as “did not inhibit”.
